Data reported in ChEMBL document CHEMBL3886818, “Pyrazole carboxamides as Janus kinase inhibitors” (2016).

Tests used:
[1] = biological target: Tyrosine-protein kinase JAK1 (Homo sapiens, UniProt P23458); experiment: Subsequent reagent additions employed an Agilent Bravo.
[2] = biological target: Tyrosine-protein kinase JAK2 (Homo sapiens, UniProt O60674)
Tyrosine-protein kinase JAK2, sequence (O60674 whole entry): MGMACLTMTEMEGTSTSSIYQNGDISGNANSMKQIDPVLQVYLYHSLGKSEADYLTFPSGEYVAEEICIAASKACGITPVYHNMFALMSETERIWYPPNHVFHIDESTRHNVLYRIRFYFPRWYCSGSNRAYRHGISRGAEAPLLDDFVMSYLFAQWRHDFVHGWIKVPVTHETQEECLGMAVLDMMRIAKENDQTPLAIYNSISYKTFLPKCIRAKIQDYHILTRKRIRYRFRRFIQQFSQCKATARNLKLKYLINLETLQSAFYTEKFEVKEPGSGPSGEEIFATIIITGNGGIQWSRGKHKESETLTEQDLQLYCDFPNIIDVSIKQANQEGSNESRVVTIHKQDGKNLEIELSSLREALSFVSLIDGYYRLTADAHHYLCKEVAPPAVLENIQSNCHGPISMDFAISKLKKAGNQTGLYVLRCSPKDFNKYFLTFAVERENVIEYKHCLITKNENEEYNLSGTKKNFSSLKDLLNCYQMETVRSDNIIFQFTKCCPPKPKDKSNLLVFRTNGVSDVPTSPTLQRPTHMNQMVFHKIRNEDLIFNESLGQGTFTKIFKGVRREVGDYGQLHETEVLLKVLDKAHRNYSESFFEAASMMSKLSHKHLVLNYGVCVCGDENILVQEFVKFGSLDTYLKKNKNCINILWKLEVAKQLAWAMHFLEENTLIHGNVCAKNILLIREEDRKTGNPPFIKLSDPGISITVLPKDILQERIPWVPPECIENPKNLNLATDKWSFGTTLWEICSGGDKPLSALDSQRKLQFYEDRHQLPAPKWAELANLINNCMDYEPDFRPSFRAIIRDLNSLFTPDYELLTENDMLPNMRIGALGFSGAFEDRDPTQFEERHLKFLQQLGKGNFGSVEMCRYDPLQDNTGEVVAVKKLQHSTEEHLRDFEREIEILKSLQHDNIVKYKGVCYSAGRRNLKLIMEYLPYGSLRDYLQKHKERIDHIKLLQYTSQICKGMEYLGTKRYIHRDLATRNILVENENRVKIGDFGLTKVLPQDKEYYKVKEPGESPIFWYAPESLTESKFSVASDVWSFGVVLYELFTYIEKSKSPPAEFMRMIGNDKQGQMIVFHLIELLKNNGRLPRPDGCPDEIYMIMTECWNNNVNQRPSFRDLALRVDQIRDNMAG

Tyrosine-protein kinase JAK1, sequence (P23458 whole entry): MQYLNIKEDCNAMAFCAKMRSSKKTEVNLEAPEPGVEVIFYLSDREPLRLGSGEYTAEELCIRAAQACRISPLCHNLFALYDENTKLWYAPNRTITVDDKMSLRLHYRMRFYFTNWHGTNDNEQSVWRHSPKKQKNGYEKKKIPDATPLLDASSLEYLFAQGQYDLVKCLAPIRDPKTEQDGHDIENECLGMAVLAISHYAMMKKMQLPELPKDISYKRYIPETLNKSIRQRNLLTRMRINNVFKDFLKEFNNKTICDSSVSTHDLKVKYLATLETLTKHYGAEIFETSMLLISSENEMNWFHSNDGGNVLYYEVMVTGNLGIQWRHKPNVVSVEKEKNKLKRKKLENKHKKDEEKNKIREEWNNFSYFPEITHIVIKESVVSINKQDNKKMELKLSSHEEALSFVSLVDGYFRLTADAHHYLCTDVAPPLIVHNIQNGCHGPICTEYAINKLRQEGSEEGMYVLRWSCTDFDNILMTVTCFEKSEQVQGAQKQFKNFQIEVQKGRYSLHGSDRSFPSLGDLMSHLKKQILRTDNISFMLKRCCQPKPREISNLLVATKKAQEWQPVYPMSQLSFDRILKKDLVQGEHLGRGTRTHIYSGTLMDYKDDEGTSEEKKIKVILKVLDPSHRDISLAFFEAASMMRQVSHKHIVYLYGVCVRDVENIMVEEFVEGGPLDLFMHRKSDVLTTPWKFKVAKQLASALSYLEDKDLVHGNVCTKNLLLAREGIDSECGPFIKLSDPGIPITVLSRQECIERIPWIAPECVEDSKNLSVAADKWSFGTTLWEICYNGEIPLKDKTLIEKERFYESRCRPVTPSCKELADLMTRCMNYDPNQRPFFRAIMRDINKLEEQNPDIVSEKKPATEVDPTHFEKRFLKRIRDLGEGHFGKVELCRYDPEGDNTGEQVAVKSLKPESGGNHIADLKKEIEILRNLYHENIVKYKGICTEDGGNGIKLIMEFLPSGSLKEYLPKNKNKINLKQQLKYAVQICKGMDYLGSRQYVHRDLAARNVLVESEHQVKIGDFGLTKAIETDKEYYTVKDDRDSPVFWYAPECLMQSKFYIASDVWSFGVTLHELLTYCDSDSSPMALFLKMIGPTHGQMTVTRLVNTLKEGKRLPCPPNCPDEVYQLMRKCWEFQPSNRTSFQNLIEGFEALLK

IC50 [1]: 200 pM
IC50 [2]: 1000 pM
SMILES: N#C[C@H]1CCOC[C@@H]1n1cc(C(N)=O)c(Nc2ccc(OC(F)(F)F)cc2)n1 (single isomer, unassigned)
